Here are results for five molecules from patent US5476847A, “Derivatives of phosphinic acid useful as endothelin converting enzyme inhibitors” (priority 1994, dated 1995).

In assay [1] the test system is ECE. The experiment in a line: BET Challenge Method (pressor response to BET-1 in anesthetized rats). The following applies: BET-1 5 μg/kg.
Procedure: ECE in vivo activity is determined as described by Vemulapalli et al.,in Life Sciences, 53 (1993), pp. 783-793. Briefly, male Charles River CD rats (Wilmington, Mass.) weighing 250-275 g are anesthetized with Inactin, 100 mg/kg, ip. The trachea is catheterized. The right carotid artery and the right jugular vein are cannulated to record blood pressure (BP) and to infuse drugs, respectively. […] The rectal temperature is kept at 37° C. After an equilibration period of 15-30 min, the rats are infused with saline vehicle (20 μl/min) or test compounds (0.01-0.25 mg/kg/min) throughout the study. Thirty minutes after the start of infusion, the rats are challenged with BET-1 (5 μg/kg) via the venous catheter, and the BP is monitored for another 15 min.
Assay [2] relates to I/H-induced ET-1 release in isolated perfused guinea pig lungs. As to the kind of experiment: Isolated Perfused Guinea Pig Lung Method (ischemia/hypoxia, I/H). It is filed as in vivo. As to conditions: for elevation in PIP produced by I/H (FIG. 4): subcutaneous. The procedure: The method is as described by Vemulapalli et al., in J. PharmacoL Exp. Therap., 262, 3 (1992), pp. 1062-1069. Briefly, male Dunkin-Hartley guinea pigs (400-600 g) are anesthetized with pentobarbital 30 mg/kg, ip. The trachea is cannulated to facilitate respiration. The right jugular vein is cannulated to administer saline vehicle or test compound, or compounds are administered orally or subcutaneously. Ten minutes after the administration of saline vehicle or test compound, a thoracotomy is performed and the trachea, lungs and heart are removed intact and placed in warmed Tyrode's buffer (34°-35° C.) of the following composition in mM: NaCl 120, KCl 4.8, MgSO4.7H2 O 1.2, KH2 PO4 1.2, NaHCO3 25, CaCl2.2H2 O […], glucose 11 and BSA 0.5%. The pulmonary artery and trachea are cannulated and the lungs are mounted on a perfusion apparatus. Lungs are perfused at a rate of 3.2 ml/min via the pulmonary artery with oxygenated (95% O 2 and 5% CO2) Tyrode's solution maintained at 34°-35° C. The lungs are mechanically ventilated with room air with a volume of 2.5 ml/stroke and 50 strokes/min. Pulmonary insufflation pressure (PIP) is monitored through a side arm of the perfusion apparatus with a Statham pressure transducer and recorded on a Grass polygraph. Lungs are allowed to stabilize for 15 min. Lung effluents (50 ml) are collected every 15 min into chilled polypropylene centrifuge tubes (Corning) containing 100 μl each of aprotinin (200 kallikrein inhibitory units/ml) and soybean trypsin inhibitor (20N-α-benzoyl-L-arginine ethyl ester units/ml). Ischemia-hypoxia (I/H) is produced by cessation of ventilation and perfusion for 15 min followed by reperfusion and reventilation for 60 min. At the end of the experiment, the lungs are tested for cardiopulmonary reactivity by challenging with 5-hydroxy-tryptamine (0.5 mg) directly into the lungs via a pulmonary artery cannula.
In a separate study, anesthetized guinea pigs are administered saline vehicle or test compound. Ten minutes later, the lungs are removed and mounted on a perfusion apparatus as described above. After an equilibration period of 15 min, BET-1 (30 μg over 15 min) or ET-1 (0.6 μg over 15 min) is infused directly into the perfusion medium and the effects on PIP in vehicle and test compound-treated guinea pig lungs are assessed.
FIGS. 3 to 6 show the results of four compounds of the invention on I/H-induced ET-1 release in isolated perfused guinea pig lungs. The compounds include Compounds A and B, identified above, and: […]

For assay [3] the following is noted: S. Bertenshaw, et al, J. Med. Chem., 36(1993); cited from earlier work.

Counter-ions that a name gives are not always drawn. Ends that are not written are not given here.

For the molecule `CC(C)CC(CP(=O)(O)C(Cc1ccc2ccccc2c1)NC(=O)[C@H](CCCCNC(=O)OCc1ccccc1)NS(C)(=O)=O)C(=O)N[C@@H](Cc1c[nH]c2ccccc12)C(=O)O` (stereo partly drawn) [Compound B, N-[2-[[hydroxy[1-[[2(S)-[(methylsulfonyl)amino]-1-oxo-6-[[phenylmethoxy)-carbonyl]amino]hexyl]amino]-2-(2-naphthalenyl)ethyl]phosphinyl]methyl]-4-methyl-1-oxopentyl]-L-tryptophan disodium salt], in assay [1] (0.1 mg/kg/min infusion, result in words), the “effect on blood pressure response to BET-1 challenge, compared to vehicle (FIG. 2)” value is given as “does not have an effect”. The “lower blood pressure in response to the BET-1 challenge, compared to vehicle (FIG. 2)” value in assay [1] (0.3 mg/kg/min infusion) is roughly 22 mmHg. Besides, the “elevation in PIP produced by I/H (FIG. 4)” value in assay [2] (3 mg/kg, 1 hour) is “attenuated”; in assay [2] (10 mg/kg, 6 hours) it was “attenuated”; in assay [2] (30 mg/kg, 6 hours) it was “attenuated”.

In the case of `CC(C)C(CP(=O)(O)C(Cc1ccccc1)NC(=O)C(CCCCN)NS(C)(=O)=O)C(=O)N[C@@H](Cc1c[nH]c2ccccc12)C(=O)O` (stereo partly drawn) [Compound C], the “elevation in PIP produced by I/H (FIG. 5)” value in assay [2] (iv, 10 mg/kg) was “attenuated”.

`CC(C)CC(CP(=O)(O)C(Cc1ccccc1)NC(=O)C(CC(C)C)NC(=O)OCc1ccccc1)C(=O)NC(Cc1c[nH]c2ccccc12)C(=O)O` (stereo not drawn) [Compound D, N-[2-[[hydroxy[2-[1-[4-methyl-1-oxo-2-[[(phenylmethoxy)carbonyl]amino]pentyl]amino]-2-phenylethyl]phosphinyl]methyl]-4-methyl-1-oxopentyl]-tryptophan]: in assay [2] (iv, 10 mg/kg), the “ET-1 release following I/H (FIG. 6)” value is recorded as “attenuation”.

For `CS(=O)(=O)N[C@@H](CCCCN)C(=O)N[C@@H](Cc1ccccc1)P(=O)(O)CC1(C(=O)N[C@@H](Cc2c[nH]c3ccccc23)C(=O)[O-])CCCC1.[Li+]` [Example 5, N-[[1-[[hydroxy-[1(R)-[[6-amino-2(S)-[(methylsulfonyl)amino]-1-oxohexyl]-amino]-2-phenylethyl]phosphinyl]methyl]cyclopentyl]carbonyl]-L-tryptophan lithium salt], the “lower blood pressure in response to the BET-1 challenge, compared to vehicle (FIG. 1)” value in assay [1] (0.1 mg/kg/min infusion) is roughly 15 mmHg.

On to “ET-1: endothelin-1, peptide with potent vasoconstrictive and mitogenic activity (CSCSSLMDKECVYFCHLDIIW; ends and bridges not checked; cysteine pairing not given here; UniProt P05305 53-73, looked up)”, for which the “times more potent than its precursor big-endothelin-1 (BET-1)” value in assay [3] was “approximately 100 times”.
